Where “and” joins values, the source holds several entries; their conditions need not be identical. Equal entries are not always repeated.
Tested on: Swiss mice, Sarcoma 180 sc, mean tumor weight T/C
Experiment: NCI In Vivo Anticancer Drug Screen. Data for tumor model Sarcoma 180 (subcutaneous) in Swiss mice
Settings: endpoint: mean tumor weight, higher = larger tumour
Procedure, shortened: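 Transplantable tumors were established in mice, compound was given, then survival or tumor size was recorded. The treated value was divided by the vehicle-control value.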

## C=CCOc1ccc2c(c1)CC[C@@H]1[C@@H]2CC[C@]2(C)[C@@H](O)[C@@H](O)C[C@@H]12
dose: 0.25 mg/kg/injection, schedule: Q#A X014 (sc), vehicle: steriod suspending solution
  T/C: 90 % of control
dose: 0.5 mg/kg/injection, schedule: Q01DX007 (sc), vehicle: steriod suspending solution
  T/C: 106 % of control
dose: 1.25 mg/kg/injection, schedule: Q01DX007 (sc), vehicle: steriod suspending solution
  T/C: 77 % of control
dose: 1.25 mg/kg/injection, schedule: Q#A X014 (sc), vehicle: steriod suspending solution
  T/C: 68 % of control
dose: 2.5 mg/kg/injection, schedule: Q01DX007 (sc), vehicle: steriod suspending solution
  T/C: 91 % of control
dose: 2.5 mg/kg/injection, schedule: Q#A X014 (ip), vehicle: methylcellulose (MC)
  T/C: 84 % of control
dose: 2.5 mg/kg/injection, schedule: Q#A X014 (sc), vehicle: steriod suspending solution
  T/C: 36 % of control
dose: 10.0 mg/kg/injection, schedule: Q#A X014 (sc), vehicle: steriod suspending solution
  T/C: 60 % of control

## C[C@]12CC[C@H](OC3OC(CO)C(O)C(O)C3O)C[C@H]1CC[C@@H]1[C@@H]2CC[C@]2(C)[C@@H](C3=CCOC3=O)CC[C@]12O (stereo partly drawn)
dose: 0.01 mg/kg/injection, schedule: Q01DX007 (ip), vehicle: carboxymethylcellulose (CMC)
  T/C: 60 % of control
dose: 0.05 mg/kg/injection, schedule: Q01DX007 (ip), vehicle: carboxymethylcellulose (CMC)
  T/C: 40 % of control
dose: 0.12 mg/kg/injection, schedule: Q03DX003 (ip), vehicle: carboxymethylcellulose (CMC)
  T/C: 81 % of control
dose: 0.12 mg/kg/injection, schedule: Q#A X014 (ip), vehicle: carboxymethylcellulose (CMC)
  T/C: 99 % of control
dose: 0.2 mg/kg/injection, schedule: Q01DX007 (ip), vehicle: carboxymethylcellulose (CMC)
  T/C: 46 % of control
dose: 0.25 mg/kg/injection, schedule: Q01DX007 (ip), vehicle: saline
  T/C: 82 % of control
dose: 0.25 mg/kg/injection, schedule: Q01DX007 (ip), vehicle: water
  T/C: 86 % of control
dose: 0.25 mg/kg/injection, schedule: Q03DX003 (ip), vehicle: carboxymethylcellulose (CMC)
  T/C: 75 % of control
dose: 0.25 mg/kg/injection, schedule: Q#A X014 (ip), vehicle: carboxymethylcellulose (CMC)
  T/C: 57 % of control
dose: 0.26 mg/kg/injection, schedule: Q01DX007 (ip), vehicle: saline
  T/C: 49 % of control and 51 % of control
dose: 0.38 mg/kg/injection, schedule: Q03DX003 (ip), vehicle: carboxymethylcellulose (CMC)
  T/C: 105 % of control and 108 % of control
dose: 0.5 mg/kg/injection, schedule: Q01DX007 (ip), vehicle: saline
  T/C: 55 % of control
dose: 0.5 mg/kg/injection, schedule: Q01DX007 (ip), vehicle: water
  T/C: 90 % of control
dose: 0.5 mg/kg/injection, schedule: Q03DX003 (ip), vehicle: carboxymethylcellulose (CMC)
  T/C: 92 % of control
dose: 0.5 mg/kg/injection, schedule: Q#A X014 (ip), vehicle: carboxymethylcellulose (CMC)
  T/C: 53 % of control
dose: 0.6 mg/kg/injection, schedule: Q01DX007 (ip), vehicle: saline
  T/C: 34 % of control and 57 % of control
dose: 0.8 mg/kg/injection, schedule: Q01DX007 (ip), vehicle: carboxymethylcellulose (CMC)
  T/C: 27 % of control
dose: 0.9 mg/kg/injection, schedule: Q01DX007 (ip), vehicle: saline
  T/C: 47 % of control and 51 % of control
dose: 0.96 mg/kg/injection, schedule: Q01DX007 (ip), vehicle: saline
  T/C: 13 % of control
dose: 1.0 mg/kg/injection, schedule: Q01DX007 (ip), vehicle: carboxymethylcellulose (CMC)
  T/C: 28 % of control
dose: 1.0 mg/kg/injection, schedule: Q01DX007 (ip), vehicle: saline
  T/C: 40 % of control
dose: 1.0 mg/kg/injection, schedule: Q01DX007 (ip), vehicle: water
  T/C: 40 % of control
dose: 1.0 mg/kg/injection, schedule: Q#A X014 (ip), vehicle: carboxymethylcellulose (CMC)
  T/C: 35 % of control
dose: 1.3 mg/kg/injection, schedule: Q01DX007 (ip), vehicle: saline
  T/C: 32 % of control and 38 % of control
dose: 1.9 mg/kg/injection, schedule: Q01DX007 (ip), vehicle: saline
  T/C: 13 % of control
dose: 2.0 mg/kg/injection, schedule: Q01DX007 (ip), vehicle: saline
  T/C: 22 % of control and 43 % of control
dose: 10.4 mg/kg/injection, schedule: Q01DX007 (oral), vehicle: carboxymethylcellulose (CMC)
  T/C: 89 % of control
dose: 16.0 mg/kg/injection, schedule: Q01DX007 (oral), vehicle: carboxymethylcellulose (CMC)
  T/C: 95 % of control
dose: 24.0 mg/kg/injection, schedule: Q01DX007 (oral), vehicle: carboxymethylcellulose (CMC)
  T/C: 110 % of control
dose: 36.0 mg/kg/injection, schedule: Q01DX007 (oral), vehicle: carboxymethylcellulose (CMC)
  T/C: 74 % of control
dose: 54.0 mg/kg/injection, schedule: Q01DX007 (oral), vehicle: carboxymethylcellulose (CMC)
  T/C: 101 % of control
dose: 80.0 mg/kg/injection, schedule: Q01DX007 (oral), vehicle: carboxymethylcellulose (CMC)
  T/C: 105 % of control
dose: 81.0 mg/kg/injection, schedule: Q01DX007 (oral), vehicle: carboxymethylcellulose (CMC)
  T/C: 100 % of control
dose: 120.0 mg/kg/injection, schedule: Q01DX007 (oral), vehicle: carboxymethylcellulose (CMC)
  T/C: 91 % of control
dose: 150.0 mg/kg/injection, schedule: Q01DX007 (oral), vehicle: carboxymethylcellulose (CMC)
  T/C: 82 % of control
dose: 160.0 mg/kg/injection, schedule: Q01DX007 (oral), vehicle: carboxymethylcellulose (CMC)
  T/C: 85 % of control
dose: 300.0 mg/kg/injection, schedule: Q01DX007 (oral), vehicle: carboxymethylcellulose (CMC)
  T/C: 97 % of control
dose: 500.0 mg/kg/injection, schedule: Q01DX007 (oral), vehicle: carboxymethylcellulose (CMC)
  T/C: 96 % of control
dose: 15.0 micrograms/kg/injection, schedule: Q01DX007 (ip), vehicle: saline
  T/C: 73 % of control and 89 % of control
dose: 120.0 micrograms/kg/injection, schedule: Q01DX007 (ip), vehicle: saline
  T/C: 65 % of control and 77 % of control
dose: 125.0 micrograms/kg/injection, schedule: Q01DX007 (ip), vehicle: carboxymethylcellulose (CMC)
  T/C: 85 % of control and 99 % of control
dose: 240.0 micrograms/kg/injection, schedule: Q01DX007 (ip), vehicle: saline
  T/C: 73 % of control and 84 % of control
dose: 250.0 micrograms/kg/injection, schedule: Q01DX007 (ip), vehicle: carboxymethylcellulose (CMC)
  T/C: 72 % of control and 79 % of control
dose: 500.0 micrograms/kg/injection, schedule: Q01DX007 (ip), vehicle: carboxymethylcellulose (CMC)
  T/C: 47 % of control and 62 % of control
dose: 960.0 micrograms/kg/injection, schedule: Q01DX007 (ip), vehicle: saline
  T/C: 33 % of control
dose: 2000.0 micrograms/kg/injection, schedule: Q01DX007 (ip), vehicle: carboxymethylcellulose (CMC)
  T/C: 68 % of control

## C=C(C)C(=O)O[C@H]1CC2=C[C@@H](C[C@@]3(C)O[C@@H]3[C@H]3OC(=O)C(=C)[C@@H]31)OC2=O
dose: 2.5 mg/kg/injection, schedule: Q01DX007 (ip), vehicle: saline
  T/C: 105 % of control
dose: 5.0 mg/kg/injection, schedule: Q01DX007 (ip), vehicle: saline
  T/C: 106 % of control
dose: 10.0 mg/kg/injection, schedule: Q01DX007 (ip), vehicle: saline
  T/C: 100 % of control

## c1ccn(-c2nc(-n3cccc3)nc(-n3cccc3)n2)c1
dose: 31.25 mg/kg/injection, schedule: Q#A X014 (ip), vehicle: carboxymethylcellulose (CMC)
  T/C: 47 % of control
dose: 62.5 mg/kg/injection, schedule: Q#A X014 (ip), vehicle: carboxymethylcellulose (CMC)
  T/C: 43 % of control
dose: 125.0 mg/kg/injection, schedule: Q#A X014 (ip), vehicle: carboxymethylcellulose (CMC)
  T/C: 46 % of control

## Nc1nc(SCc2ccccc2)c2ncn(CCCl)c2n1
dose: 56.0 mg/kg/injection, schedule: Q01DX007 (ip), vehicle: carboxymethylcellulose (CMC)
  T/C: 36 % of control and 55 % of control
dose: 83.0 mg/kg/injection, schedule: Q01DX007 (ip), vehicle: carboxymethylcellulose (CMC)
  T/C: 35 % of control and 41 % of control
dose: 125.0 mg/kg/injection, schedule: Q01DX007 (ip), vehicle: carboxymethylcellulose (CMC)
  T/C: 12 % of control and 18 % of control

## C[C@H]1/C(=C/C(=O)OCCN(C)C)CC[C@H]2[C@H]1C(=O)C[C@H]1C(C)(C)[C@@H](O)CC[C@]21C
dose: 1.88 mg/kg/injection, schedule: Q01DX007 (ip), vehicle: saline
  T/C: 60 % of control
dose: 3.75 mg/kg/injection, schedule: Q01DX007 (ip), vehicle: saline
  T/C: 64 % of control
dose: 7.5 mg/kg/injection, schedule: Q01DX007 (ip), vehicle: saline
  T/C: 75 % of control

## CC(=O)OCC(=O)[C@@]1(O)CC[C@H]2[C@@H]3CCC4=CC(=O)C=C[C@]4(C)[C@H]3[C@@H](O)C[C@@]21C
dose: 13.3 mg/kg/injection, schedule: Q01DX007 (sc), vehicle: steriod suspending solution
  T/C: 73 % of control
dose: 20.0 mg/kg/injection, schedule: Q01DX007 (sc), vehicle: steriod suspending solution
  T/C: 62 % of control
dose: 30.0 mg/kg/injection, schedule: Q01DX007 (sc), vehicle: steriod suspending solution
  T/C: 51 % of control
dose: 45.0 mg/kg/injection, schedule: Q01DX007 (sc), vehicle: steriod suspending solution
  T/C: 23 % of control

## CCCCCN(C)/N=N/c1nc[nH]c1C(N)=O
dose: 50.0 mg/kg/injection, schedule: Q01DX007 (ip), vehicle: carboxymethylcellulose (CMC)
  T/C: 41 % of control and 51 % of control
dose: 75.0 mg/kg/injection, schedule: Q01DX007 (ip), vehicle: carboxymethylcellulose (CMC)
  T/C: 23 % of control and 36 % of control
dose: 100.0 mg/kg/injection, schedule: Q01DX007 (ip), vehicle: carboxymethylcellulose (CMC)
  T/C: 24 % of control
